Measurements as given in patent publication US20250049812A1, “Compounds that Inhibit Necroptosis and Their Preparation Methods” (SHANGHAI INSTITUTE OF ORGANIC CHEMISTRY, CHINESE ACADEMY OF …, priority 2021, published 2025).
Where two headings read alike, the source gives them in different places.

Legend:
[1] = system: Jurkat FADD (−/−) Cells; assay: TNF-α induced necroptosis of Jurkat FADD-deficient cells (CellTiter-Glo cell survival); type: cell-based, human; settings: Homo sapiens; TNF-α induced necroptosis, Jurkat FADD-deficient cells, 13 hours, CellTiter-Glo; read-out: IC50
In short: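 Cells in RPMI 1640 with 10% FBS were pretreated for 1 h at 37 °C with compound (12-point threefold series from 25 μM, or 0.5 μM, in triplicate). They were then stimulated with TNFα added as a 5 ng/mL solution for 13 h. Survival was read by luminescence.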

[2] = biological target: T1, RIPK1 (Homo sapiens, UniProt Q13546); assay: RIPK1 activity inhibition test (NANOSYN); type: biochemical; settings: 12 concentrations, threefold dilution, 1% DMSO
T1 sequence (Q13546 1-671): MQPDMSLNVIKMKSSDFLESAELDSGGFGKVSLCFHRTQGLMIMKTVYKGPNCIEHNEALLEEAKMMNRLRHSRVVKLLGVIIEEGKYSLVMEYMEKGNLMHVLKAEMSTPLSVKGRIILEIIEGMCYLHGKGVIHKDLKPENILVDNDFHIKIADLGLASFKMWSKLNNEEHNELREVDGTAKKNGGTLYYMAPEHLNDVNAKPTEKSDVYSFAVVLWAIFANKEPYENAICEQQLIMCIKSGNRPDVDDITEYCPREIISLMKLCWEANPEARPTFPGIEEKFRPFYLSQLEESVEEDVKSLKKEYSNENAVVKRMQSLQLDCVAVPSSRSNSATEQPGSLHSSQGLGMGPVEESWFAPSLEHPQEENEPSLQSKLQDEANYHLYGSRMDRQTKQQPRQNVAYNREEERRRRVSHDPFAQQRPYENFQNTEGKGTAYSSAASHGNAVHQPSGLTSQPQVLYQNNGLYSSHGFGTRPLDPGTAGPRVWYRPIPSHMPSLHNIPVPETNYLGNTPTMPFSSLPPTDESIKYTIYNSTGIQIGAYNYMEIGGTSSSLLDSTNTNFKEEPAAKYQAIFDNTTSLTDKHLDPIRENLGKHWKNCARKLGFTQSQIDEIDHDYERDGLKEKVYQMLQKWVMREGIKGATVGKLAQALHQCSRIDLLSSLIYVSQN
Method: The test compounds were dissolved in DMSO, with the highest concentration being […]. Subsequently, the concentrations were serially diluted threefold, with the DMSO concentration in the test medium maintained at 1%. IC50 values were calculated from data generated prom 12 tested concentrations.

[3] = Study of oral pharmacokinetics in rats; settings: rat, in vivo, male SD rats, p.o.; for bioavailability: i.v. 1 mg/kg; for AUC(0-t): read-out: AUC0-8
Method: Healthy male SD rats were used as experimental animals. The intragastric (p.o.) administration was performed, with a dosage of 5 mg/kg or 15 mg/kg. Preparation: the compound was dissolved in a formulation made of 1% tween 80, 1% HMPC, and 98% water. The mixture was ground and shaken until the compound was uniformly distributed with a small particle size, and then 1 equivalent of methanesulfonic acid was added. The intravenous administration was performed with a dosage of 1 mg/kg. Preparation: 5% DMSO, 10% EtOH, 10% sulotol, and 75% physiological saline was added to the compound, and mixed well. Samples were taken at 5 minutes, 15 minutes, 30 minutes, 1 hour, 2 hours, 4 hours, 6 hours, and 8 hours after administration, and then the samples were analyzed using liquid chromatography tandem mass spectrometry (LC-MS/MS).

CN1C(=O)[C@@H](NC(=O)c2nnc(Cc3ccccc3)[nH]2)Cc2cn(-c3ncccc3OC(F)F)c3cccc1c23 [T-112, (S)-5-benzyl-N-(6-(3-(difluoromethoxy)pyridin-2-yl)-1-methyl-2-oxo-2,3,4,6-tetrahydro-1H-aza [4,3,2-cd]indol-3-yl)-4H-1,2,4-triazole-3-carboxamide]
IC50 [1]: < 0.01 µM | IC50 [2]: 0.0283 µM | Cmax ([3]; 5 mg/kg): 494 ng/mL | Tmax ([3]; 5 mg/kg): 0.75 h | half-life ([3]; 5 mg/kg): 1.99 h | bioavailability ([3]; 5 mg/kg): 18.3% | AUC(0-t) ([3]; 5 mg/kg): 1700 ng·h/mL | Cmax ([3]; 15 mg/kg): 3930 ng/mL | Tmax ([3]; 15 mg/kg): 1.5 h | half-life ([3]; 15 mg/kg): 1.91 h | bioavailability ([3]; 15 mg/kg): 57.1% | AUC(0-t) ([3]; 15 mg/kg): 15900 ng·h/mL
